The nature of data set [1]: (§1) Electrical activity assay on cell lines treated with a given drug. DMSO was used as a vehicle and a control, unblinded dofetilide was used as a control. Also on record: FPDc: unit not given here. Type of data set: ADME, cell-based. The following applies: human, ipsc-cm.
Data set [2] can be described thus: as §1. Type of data set: ADME, cell-based. To be noted: human, ipsc-cm.
Data set [3] in a line: as §1. The following applies: human, ipsc-cm.
Data set [4] can be described thus: as §1. Type of data set: ADME, cell-based. The following applies: human, ipsc-cm. Also on record: FPDc: unit not given here. This is another data set of the same source.
Data set [5] in a line: as §1. Also on record: APDc: unit not given here. The following applies: human, ipsc-cm. Type of data set: cell-based.
Data set [6] is described as follows: as §1. To be noted: human, ipsc-cm. The source holds these as a separate data set.
The nature of data set [7]: as §1. To be noted: human, ipsc-cm. The source holds these as a separate data set.
Data set [8] is described as follows: as §1. Type of data set: ADME, cell-based. The following applies: human, ipsc-cm, 0.01 µM; concentration (um) 0.01 uM.
The mark [9] stands for this setting: 0.001 µM, concentration (um) 0.001 uM.
[10] abbreviates: 0.01 µM, concentration (um) 0.01 uM.
[11] abbreviates: 0.1 µM, concentration (um) 0.1 uM.
Setting [12] is: 10 µM, concentration (um) 10 uM.
Setting [13] is: 100 µM, concentration (um) 100 uM.
[14] abbreviates: 0.09507 µM, concentration (um) 0.0950736 uM.
Setting [15] is: 0.3004 µM, concentration (um) 0.300433 uM.
[16] abbreviates: 0.9494 µM, concentration (um) 0.949367 uM.
Where [17] appears, read: 0.003169 µM, concentration (um) 0.00316912 uM.
[18] abbreviates: 0.01001 µM, concentration (um) 0.0100144 uM.
Where [19] appears, read: 0.03165 µM, concentration (um) 0.0316456 uM.

As to `COc1ccc(CCN(C)CCCC(C#N)(c2ccc(OC)c(OC)c2)C(C)C)cc1OC` (stereo not given) [VERAPAMIL], the FPD measurement is listed as 5 Values Out Of 5 Were Excluded Due To Quiescence Or 0 Apdc in data set [1] (setting [9]); 5 Values Out Of 5 Were Excluded Due To Quiescence Or 0 Apdc in data set [1] (setting [10]); 5 Values Out Of 5 Were Excluded Due To Quiescence Or 0 Apdc in data set [1] (setting [11]); 5 Values Out Of 5 Were Excluded Due To Quiescence Or 0 Apdc in data set [1] (1 µM, concentration (um) 1 uM); 52.61 FPDc in data set [2] (setting [9]); 58.45 FPDc in data set [2] (setting [10]). The FPD measurement in data set [3] (0.001 µM) is reported as 1 Values Out Of 1 Were Excluded Due To Quiescence Or 0 Fpdc; in data set [3] (0.01 µM) it was 1 Values Out Of 1 Were Excluded Due To Quiescence Or 0 Fpdc; in data set [3] (0.1 µM), 1 Values Out Of 1 Were Excluded Due To Quiescence Or 0 Fpdc; in data set [3] (1 µM), 1 Values Out Of 1 Were Excluded Due To Quiescence Or 0 Fpdc; in data set [4] (setting [11]), “More Than Half The Wells Had A Quiescence Event Or Fpdc Readings Of 0”; in data set [4] (1 µM, concentration (um) 1 uM) it was “More Than Half The Wells Had A Quiescence Event Or Fpdc Readings Of 0”. Further, the FPDc in data set [1] (setting [9]) is reported as 48.96; in data set [1] (setting [10]) it was 54.23; in data set [1] (setting [11]), 56.48; in data set [1] (1 µM, concentration (um) 1 uM), 50.52; in data set [2] (setting [9]) it was 6 Values Out Of 6 Were Excluded Due To Quiescence Or 0 Fpdc; in data set [2] (setting [10]), 6 Values Out Of 6 Were Excluded Due To Quiescence Or 0 Fpdc. Besides, the FPDc in data set [2] (setting [11]) is on record as 6 Values Out Of 6 Were Excluded Due To Quiescence Or 0 Fpdc; in data set [2] (1 µM, concentration (um) 1 uM) it was 6 Values Out Of 6 Were Excluded Due To Quiescence Or 0 Fpdc; in data set [3] (0.001 µM), 1 Values Out Of 1 Were Excluded Due To Quiescence Or 0 Fpdc; in data set [3] (0.01 µM) it was 1 Values Out Of 1 Were Excluded Due To Quiescence Or 0 Fpdc; in data set [3] (0.1 µM), 1 Values Out Of 1 Were Excluded Due To Quiescence Or 0 Fpdc; in data set [3] (1 µM) it was 1 Values Out Of 1 Were Excluded Due To Quiescence Or 0 Fpdc. Moreover, the FPDc in data set [4] (setting [9]) was 0.02679; in data set [4] (setting [10]) it was 0.03865; in data set [4] (setting [11]), “More Than Half The Wells Had A Quiescence Event Or Fpdc Readings Of 0”; in data set [4] (1 µM, concentration (um) 1 uM), “More Than Half The Wells Had A Quiescence Event Or Fpdc Readings Of 0”.

In the case of `CC[C@H]1OC(=O)[C@H](C)[C@@H](O[C@H]2C[C@@](C)(OC)[C@@H](O)[C@H](C)O2)[C@H](C)[C@@H](O[C@@H]2O[C@H](C)C[C@H](N(C)C)[C@H]2O)[C@](C)(OC)C[C@@H](C)C(=O)[C@H](C)[C@@H](O)[C@]1(C)O` [CLARITHROMYCIN], the FPDc in data set [4] (setting [11]) is on record as 0.03502; in data set [4] (1 µM, concentration (um) 1 uM) it was 0.03611; in data set [4] (setting [12]), 0.04288; in data set [4] (setting [13]), 0.03271. For the same compound, the APDc in data set [5] (setting [11]) amounted to 48.18; in data set [5] (1 µM, concentration (um) 1 uM), 53.12; in data set [5] (setting [12]) it was 61.24; in data set [5] (setting [13]), 79.49. The FPD measurement in data set [5] (setting [11]) was found to be 48.18 FPDc; in data set [5] (1 µM, concentration (um) 1 uM) it was 53.12 FPDc; in data set [5] (setting [12]), 61.24 FPDc; in data set [5] (setting [13]), 79.49 FPDc.

`CN(C)CCCN1c2ccccc2Sc2ccc(Cl)cc21` [CHLORPROMAZINE]: the FPD measurement in data set [6] (0.09507 µM) is reported as 53.9 FPDc; in data set [6] (0.3004 µM) it was 52.05 FPDc; in data set [6] (0.9494 µM) it was 50.49 FPDc; in data set [6] (3 µM), 44.91 FPDc; in data set [4] (3 µM, concentration (um) 3 uM) it was “More Than Half The Wells Had A Quiescence Event Or Fpdc Readings Of 0”; in data set [5] (setting [14]), 69.32 FPDc. Moreover, the FPD measurement in data set [5] (setting [15]) was 63.65 FPDc; in data set [5] (setting [16]), 55.94 FPDc; in data set [5] (3 µM, concentration (um) 3 uM) it was 58.51 FPDc. Further, the FPDc in data set [6] (0.09507 µM) was 53.9; in data set [6] (0.3004 µM), 52.05; in data set [6] (0.9494 µM), 50.49; in data set [6] (3 µM) it was 44.91; in data set [4] (setting [14]) it was 0.04224; in data set [4] (setting [15]), 0.04702. For the same compound, the FPDc is listed as 0.04411 in data set [4] (setting [16]) and “More Than Half The Wells Had A Quiescence Event Or Fpdc Readings Of 0” in data set [4] (3 µM, concentration (um) 3 uM). Besides, the APDc in data set [5] (setting [14]) turned out to be 69.32; in data set [5] (setting [15]), 63.65; in data set [5] (setting [16]), 55.94; in data set [5] (3 µM, concentration (um) 3 uM) it was 58.51.

As for `CC(C)COCC(CN(Cc1ccccc1)c1ccccc1)N1CCCC1` (stereo not given) [BEPRIDIL], the FPDc in data set [7] (0.01 µM) is reported as 70.33; in data set [7] (0.1 µM) it was 77.75; in data set [7] (1 µM) it was 78.3; in data set [7] (10 µM), “More Than Half The Wells Had A Quiescence Event Or Fpdc Readings Of 0”; in data set [4] (setting [10]) it was 0.04073; in data set [4] (setting [11]) it was 0.0376. Moreover, the FPDc in data set [4] (1 µM, concentration (um) 1 uM) is listed as 0.04541; in data set [4] (setting [12]), “More Than Half The Wells Had A Quiescence Event Or Fpdc Readings Of 0”. Moreover, the FPD measurement in data set [7] (1 µM) is on record as 5 Values Out Of 5 Were Excluded Due To Quiescence Or 0 Apdc; in data set [7] (10 µM) it was “More Than Half The Wells Had A Quiescence Event Or Apdc Readings Of 0”; in data set [4] (setting [12]), “More Than Half The Wells Had A Quiescence Event Or Fpdc Readings Of 0”; in data set [5] (setting [10]), 52.45 FPDc; in data set [5] (setting [11]) it was 43.71 FPDc; in data set [5] (1 µM, concentration (um) 1 uM), 57.33 FPDc. Moreover, the APDc in data set [5] (setting [10]) came to 52.45; in data set [5] (setting [11]), 43.71; in data set [5] (1 µM, concentration (um) 1 uM), 57.33.

Consider `C[S+](C)[O-]` [DIMETHYL SULFOXIDE], for which the FPDc in data set [1] (setting [10]) is reported as 50.28; in data set [2] (setting [9]) it was 72 Values Out Of 72 Were Excluded Due To Quiescence Or 0 Fpdc; in data set [6] (0.001 µM), 55.35; in data set [7] (1 µM), 70.37; in data set [8], 20.63; in data set [4] (setting [9]) it was 0.03393. Moreover, the FPD measurement in data set [2] (setting [9]) is 49.93 FPDc; in data set [6] (0.001 µM), 55.35 FPDc; in data set [8], 25 Values Out Of 25 Were Excluded Due To Quiescence Or 0 Apdc.

For `COc1cc(N)c(Cl)cc1C(=O)NC1CCN(CCCOc2ccc(F)cc2)CC1OC` (stereo not given) [CISAPRIDE], the FPD measurement in data set [3] (0.003169 µM) was 1 Values Out Of 1 Were Excluded Due To Quiescence Or 0 Fpdc; in data set [3] (0.01001 µM) it was 1 Values Out Of 1 Were Excluded Due To Quiescence Or 0 Fpdc; in data set [3] (0.03165 µM) it was 1 Values Out Of 1 Were Excluded Due To Quiescence Or 0 Fpdc; in data set [3] (0.1 µM) it was 1 Values Out Of 1 Were Excluded Due To Quiescence Or 0 Fpdc; in data set [5] (setting [17]) it was 60.87 FPDc; in data set [5] (setting [18]) it was 62.7 FPDc. Further, the FPD measurement in data set [5] (setting [19]) is listed as 58.7 FPDc; in data set [5] (setting [11]), 92.05 FPDc. Also, the FPDc in data set [3] (0.003169 µM) is reported as 1 Values Out Of 1 Were Excluded Due To Quiescence Or 0 Fpdc; in data set [3] (0.01001 µM), 1 Values Out Of 1 Were Excluded Due To Quiescence Or 0 Fpdc; in data set [3] (0.03165 µM) it was 1 Values Out Of 1 Were Excluded Due To Quiescence Or 0 Fpdc; in data set [3] (0.1 µM), 1 Values Out Of 1 Were Excluded Due To Quiescence Or 0 Fpdc; in data set [4] (setting [17]), 0.04125; in data set [4] (setting [18]), 0.03941. Also, the FPDc in data set [4] (setting [19]) was 0.04671; in data set [4] (setting [11]), 0.04762. For the same compound, the APDc came out at 60.87 in data set [5] (setting [17]), 62.7 in data set [5] (setting [18]), 58.7 in data set [5] (setting [19]) and 92.05 in data set [5] (setting [11]).

Take `COc1ccc([C@@H]2Sc3ccccc3N(CCN(C)C)C(=O)[C@@H]2OC(C)=O)cc1` [DILTIAZEM]: the FPD measurement in data set [6] (0.01 µM) is reported as 53.63 FPDc; in data set [6] (0.1 µM), 45.42 FPDc; in data set [6] (1 µM) it was 28.2 FPDc; in data set [6] (10 µM), 13.87 FPDc; in data set [4] (setting [11]) it was “More Than Half The Wells Had A Quiescence Event Or Fpdc Readings Of 0”; in data set [4] (1 µM, concentration (um) 1 uM) it was “More Than Half The Wells Had A Quiescence Event Or Fpdc Readings Of 0”. The FPD measurement entry is reported as “More Than Half The Wells Had A Quiescence Event Or Fpdc Readings Of 0” in data set [4] (setting [12]); 56.41 FPDc in data set [5] (setting [10]); 49.22 FPDc in data set [5] (setting [11]); 40.25 FPDc in data set [5] (1 µM, concentration (um) 1 uM); 32.58 FPDc in data set [5] (setting [12]). Besides, the FPDc in data set [6] (0.01 µM) is 53.63; in data set [6] (0.1 µM), 45.42; in data set [6] (1 µM), 28.2; in data set [6] (10 µM) it was 13.87; in data set [4] (setting [10]) it was 0.0252; in data set [4] (setting [11]), “More Than Half The Wells Had A Quiescence Event Or Fpdc Readings Of 0”. The FPDc result is recorded as “More Than Half The Wells Had A Quiescence Event Or Fpdc Readings Of 0” in data set [4] (1 µM, concentration (um) 1 uM) and “More Than Half The Wells Had A Quiescence Event Or Fpdc Readings Of 0” in data set [4] (setting [12]). In addition, the APDc in data set [5] (setting [10]) was 56.41; in data set [5] (setting [11]), 49.22; in data set [5] (1 µM, concentration (um) 1 uM) it was 40.25; in data set [5] (setting [12]), 32.58.
